Source: PubChem BioAssay AID2060489 (Molecular Pharmacology Branch, DTP, NCI, 2025)

System: 922993-354-T-J3-PDC complex spheroids, viability
Assay: Anticancer human tumor 922993-354-T-J3-PDC patient-derived endometrial carcinoma cell line growth inhibition [GQUAD]
Settings: for IC50: curve of first compound; for viability, T/C: stronger effect = lower value
Summary of the method: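 Tumor cells were grown as complex spheroids with HUVEC endothelial cells and mesenchymal stem cells as stroma. G-quadruplex stabilizers were combined with targeted agents over half-log dilutions from near the clinical Cmax, or from 10 microM.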

[1] = second compound 0.0316 µM, first compound 0.0316 µM
[2] = second compound 0.0316 µM, first compound 0.1 µM
[3] = second compound 0.0316 µM, first compound 0.316 µM
[4] = second compound 0.0316 µM, first compound 1 µM
[5] = second compound 0.0316 µM, first compound 3.16 µM
[6] = second compound 0.0316 µM, first compound 10 µM
[7] = second compound 0.1 µM, first compound 0.0316 µM
[8] = second compound 0.1 µM, first compound 0.1 µM
[9] = second compound 0.1 µM, first compound 0.316 µM
[10] = second compound 0.1 µM, first compound 1 µM
[11] = second compound 0.1 µM, first compound 3.16 µM
[12] = second compound 0.1 µM, first compound 10 µM
[13] = second compound 0.316 µM, first compound 0.0316 µM
[14] = second compound 0.316 µM, first compound 0.1 µM
[15] = second compound 0.316 µM, first compound 0.316 µM
[16] = second compound 0.316 µM, first compound 1 µM
[17] = second compound 0.316 µM, first compound 3.16 µM
[18] = second compound 0.316 µM, first compound 10 µM
[19] = second compound 1 µM, first compound 0.0316 µM
[20] = second compound 1 µM, first compound 0.1 µM
[21] = second compound 1 µM, first compound 0.316 µM
[22] = second compound 1 µM, first compound 1 µM
[23] = second compound 1 µM, first compound 3.16 µM
[24] = second compound 1 µM, first compound 10 µM
[25] = second compound 3.16 µM, first compound 0.0316 µM
[26] = second compound 3.16 µM, first compound 0.1 µM
[27] = second compound 3.16 µM, first compound 0.316 µM
[28] = second compound 3.16 µM, first compound 1 µM
[29] = second compound 3.16 µM, first compound 3.16 µM
[30] = second compound 3.16 µM, first compound 10 µM
[31] = second compound 10 µM, first compound 0.0316 µM
[32] = second compound 10 µM, first compound 0.1 µM
[33] = second compound 10 µM, first compound 0.316 µM
[34] = second compound 10 µM, first compound 1 µM
[35] = second compound 10 µM, first compound 3.16 µM
[36] = second compound 10 µM, first compound 10 µM
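Note: spheroids exposed to compounds for seven days.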
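Throughout, for viability, T/C: 100% = DMSO vehicle control viability.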

## COc1ccc([C@@H](O)c2cc(-c3ncnc4cc(N5CCOCC5)ccc34)c(F)cc2Cl)nn1 + Cc1cnc(CNC(=O)c2c(=O)c3ccc(N4CCCN(C)CC4)nc3n3c2sc2ccccc23)cn1
Second compound 0.0316 µM
  IC50: 2.86 µM
Second compound 0.1 µM
  IC50: 1.02 µM
Second compound 0.316 µM
  IC50: 0.456 µM
Second compound 1 µM
  IC50: 3.99 µM
Second compound 3.16 µM
  IC50: 1.83 µM
Second compound 10 µM
  IC50: < 0.0316 µM
[1]
  viability, T/C: 84.2%
[2]
  viability, T/C: 60.5%
[3]
  viability, T/C: 88.1%
[4]
  viability, T/C: 66.6%
[5]
  viability, T/C: 49.9%
[6]
  viability, T/C: 42.9%
[7]
  viability, T/C: 79.9%
[8]
  viability, T/C: 61.7%
[9]
  viability, T/C: 67.7%
[10]
  viability, T/C: 44.3%
[11]
  viability, T/C: 44.1%
[12]
  viability, T/C: 35.6%
[13]
  viability, T/C: 66.7%
[14]
  viability, T/C: 54.3%
[15]
  viability, T/C: 48.1%
[16]
  viability, T/C: 52.6%
[17]
  viability, T/C: 45.5%
[18]
  viability, T/C: 38.1%
[19]
  viability, T/C: 57.1%
[20]
  viability, T/C: 49.5%
[21]
  viability, T/C: 56.7%
[22]
  viability, T/C: 57.7%
[23]
  viability, T/C: 58.6%
[24]
  viability, T/C: 27.1%
[25]
  viability, T/C: 51.8%
[26]
  viability, T/C: 51%
[27]
  viability, T/C: 55.7%
[28]
  viability, T/C: 52.3%
[29]
  viability, T/C: 47.8%
[30]
  viability, T/C: 14.6%
[31]
  viability, T/C: 45%
[32]
  viability, T/C: 50.7%
[33]
  viability, T/C: 46.8%
[34]
  viability, T/C: 38.6%
[35]
  viability, T/C: 30.3%
[36]
  viability, T/C: 4.3%

## O=C(c1cc(Cc2n[nH]c(=O)c3ccccc23)ccc1F)N1CCN(C(=O)C2CC2)CC1 + Cc1cnc(CNC(=O)c2c(=O)c3ccc(N4CCCN(C)CC4)nc3n3c2sc2ccccc23)cn1
Second compound 0.0316 µM
  IC50: > 10 µM
Second compound 0.1 µM
  IC50: > 10 µM
Second compound 0.316 µM
  IC50: < 0.0316 µM
Second compound 1 µM
  IC50: < 0.0316 µM
Second compound 3.16 µM
  IC50: < 0.0316 µM
Second compound 10 µM
  IC50: 3.77 µM
[1]
  viability, T/C: 79.7%
[2]
  viability, T/C: 78%
[3]
  viability, T/C: 90.8%
[4]
  viability, T/C: 92.5%
[5]
  viability, T/C: 61.2%
[6]
  viability, T/C: 75%
[7]
  viability, T/C: 74.1%
[8]
  viability, T/C: 68.3%
[9]
  viability, T/C: 64.1%
[10]
  viability, T/C: 49.1%
[11]
  viability, T/C: 54.4%
[12]
  viability, T/C: 76%
[13]
  viability, T/C: 57.4%
[14]
  viability, T/C: 46.1%
[15]
  viability, T/C: 39.4%
[16]
  viability, T/C: 42%
[17]
  viability, T/C: 50.4%
[18]
  viability, T/C: 55.3%
[19]
  viability, T/C: 50.2%
[20]
  viability, T/C: 51.7%
[21]
  viability, T/C: 37.2%
[22]
  viability, T/C: 43.5%
[23]
  viability, T/C: 48.5%
[24]
  viability, T/C: 41.1%
[25]
  viability, T/C: 43.7%
[26]
  viability, T/C: 53.4%
[27]
  viability, T/C: 53.4%
[28]
  viability, T/C: 57.7%
[29]
  viability, T/C: 51.3%
[30]
  viability, T/C: 49.8%
[31]
  viability, T/C: 42.8%
[32]
  viability, T/C: 53.4%
[33]
  viability, T/C: 60.1%
[34]
  viability, T/C: 52.8%
[35]
  viability, T/C: 52%
[36]
  viability, T/C: 39.2%

## C#Cc1c(F)ccc2cc(O)cc(-c3ncc4c(N5CC6CCC(C5)N6)nc(OCC56CCCN5CC(F)C6)nc4c3F)c12 (stereo unspecified) + CN(C)c1ccc(Nc2c3ccc(NC(=O)CCN4CCCC4)cc3nc3cc(NC(=O)CCN4CCCC4)ccc23)cc1
Second compound 0.0316 µM
  IC50: > 10 µM
Second compound 0.1 µM
  IC50: > 10 µM
Second compound 0.316 µM
  IC50: > 10 µM
Second compound 1 µM
  IC50: > 10 µM
Second compound 3.16 µM
  IC50: > 10 µM
Second compound 10 µM
  IC50: > 10 µM
[1]
  viability, T/C: 93.8%
[2]
  viability, T/C: 78.5%
[3]
  viability, T/C: 97.2%
[4]
  viability, T/C: 86.9%
[5]
  viability, T/C: 95.3%
[6]
  viability, T/C: 81.5%
[7]
  viability, T/C: 99.4%
[8]
  viability, T/C: 89.3%
[9]
  viability, T/C: 94.3%
[10]
  viability, T/C: 100%
[11]
  viability, T/C: 82.3%
[12]
  viability, T/C: 95.9%
[13]
  viability, T/C: 71.9%
[14]
  viability, T/C: 97.4%
[15]
  viability, T/C: 97.7%
[16]
  viability, T/C: 81%
[17]
  viability, T/C: 87%
[18]
  viability, T/C: 76%
[19]
  viability, T/C: 71.4%
[20]
  viability, T/C: 86.9%
[21]
  viability, T/C: 88.7%
[22]
  viability, T/C: 85.4%
[23]
  viability, T/C: 84%
[24]
  viability, T/C: 88.1%
[25]
  viability, T/C: 116%
[26]
  viability, T/C: 102%
[27]
  viability, T/C: 129%
[28]
  viability, T/C: 100%
[29]
  viability, T/C: 108%
[30]
  viability, T/C: 92.8%
[31]
  viability, T/C: 88.3%
[32]
  viability, T/C: 133%
[33]
  viability, T/C: 108%
[34]
  viability, T/C: 133%
[35]
  viability, T/C: 104%
[36]
  viability, T/C: 94.6%
